Here are results for four compounds from patent publication US20240246933A1, “CRYSTALLINE FORM OF TRICYCLIC DERIVATIVE COMPOUND, METHOD FOR PREPARING SAME, AND PHARMACEUTICAL COMPOSITION COMPRISING SAME” (ONCONIC THERAPEUTICS INC., priority 2021, published 2024).

Structures can show the parent of a compound that is named as a salt. Where only a bound is given, the exact number is not on record here.

The nature of data set [1]: Measurement of solubility in water (shake-flask, UPLC). To be noted: water, shake-flask shaken for 24 hours, UPLC. The data set is classed as physicochemical. How it is done:
Compounds are dissolved in DMSO and measured by UPLC, and then a calibration curve is drawn. The compounds saturated by the Shake-flask method are filtered and then measured by UPLC, and it is substituted into a calibration curve to calculate the concentration.

The next data set addresses PARP-1 enzyme (Homo sapiens, UniProt P09874). As to the kind of experiment: Inhibition test of poly (ADP-ribose) polymerase [PARP-1] enzyme (BPS Bioscience kit). To be noted: read-out: IC50 (PARP-1 enzyme inhibitory activity); PARP-1 enzyme 50 ng/well, 25° C. for 1 hour.
Data set [2] is described as follows: Stability of the addition salt of Compound 1 (temperature, humidity, light; purity by HPLC). The class given is physicochemical. How it is done:
The stability of crystals of the addition salt of Compound 1 prepared in the Examples and Comparative Examples above was confirmed, and the results are shown in Table 5 below.
Experiments according to temperature, humidity and light conditions were carried out by a method of confirming purity by HPLC after storage in a stability chamber under each condition.
Each sample was spread thinly in a Petri dish, and then the stability was evaluated after irradiation with UV light having a light intensity of 35 W to a total irradiation amount of 200 watts under conditions of 25° C. and 60% humidity using a photostability test chamber (CARON 6542-2).
Each sample was spread thinly in a Petri dish, and then the stability was evaluated after irradiation with visible light having a light intensity of 35 k Lux to a total irradiation amount of 1200 k lux under conditions of 25° C. and 60% humidity using a photostability test chamber (CARON 6542-2).

The target in another data set is T1, tankyrase-2 enzyme (Homo sapiens, UniProt Q9H2K2).
T1 construct: purchased BPS Bioscience 80578
In words: Inhibition test of tankyrase-2 enzyme (BPS Bioscience kit). The conditions noted are these: tankyrase-2 enzyme 15 ng/well, 25° C. for 1 hour; read-out: IC50 (tankyrase-2 enzyme inhibitory activity). The data set is classed as biochemical.

Data set [3] in a line: Measurement of solubility in various solvents. To be noted: 0.1 g of sample, 15 to 25° C., within 30 minutes. The data set is classed as physicochemical. How it is done:
Specifically, 0.1 g of sample was accurately weighed, put into each solvent, and shaken and mixed vigorously for 30 seconds every 5 minutes at 15 to 25° C., and the amount dissolved within 30 minutes was measured.

Data set [4] is described as follows: Purity and stability under accelerated and long-term storage conditions (HPLC). The data set is classed as physicochemical. To be noted: listed as Crystalline monohydrate of citrate in Example 3; for Long-term storage conditions (related substances) (area %): 25±2° C., humidity 60±5%; for Accelerated storage conditions (related substances) (area %): 40±2° C., humidity 75±5%. How it is done:
The purity and stability of the crystalline anhydride of the citrate prepared in Example 2 and the crystalline monohydrate of the citrate prepared in Example 3 according to the present invention were evaluated, and the results are shown in Tables 8 and 9 below.
In the tables below, stability tests were conducted under accelerated storage conditions of a temperature of 40±2° C. and humidity of 75±5%, and purity and stability tests were conducted under long-term storage conditions of a temperature of 25±2° C. and humidity of 60±5%. Experimental results were measured under the same conditions as in Experimental Example 1 using HPLC (product name: agilent 1290, manufacturer: Agilent).

Chain of PARP-1 enzyme (P09874 whole entry): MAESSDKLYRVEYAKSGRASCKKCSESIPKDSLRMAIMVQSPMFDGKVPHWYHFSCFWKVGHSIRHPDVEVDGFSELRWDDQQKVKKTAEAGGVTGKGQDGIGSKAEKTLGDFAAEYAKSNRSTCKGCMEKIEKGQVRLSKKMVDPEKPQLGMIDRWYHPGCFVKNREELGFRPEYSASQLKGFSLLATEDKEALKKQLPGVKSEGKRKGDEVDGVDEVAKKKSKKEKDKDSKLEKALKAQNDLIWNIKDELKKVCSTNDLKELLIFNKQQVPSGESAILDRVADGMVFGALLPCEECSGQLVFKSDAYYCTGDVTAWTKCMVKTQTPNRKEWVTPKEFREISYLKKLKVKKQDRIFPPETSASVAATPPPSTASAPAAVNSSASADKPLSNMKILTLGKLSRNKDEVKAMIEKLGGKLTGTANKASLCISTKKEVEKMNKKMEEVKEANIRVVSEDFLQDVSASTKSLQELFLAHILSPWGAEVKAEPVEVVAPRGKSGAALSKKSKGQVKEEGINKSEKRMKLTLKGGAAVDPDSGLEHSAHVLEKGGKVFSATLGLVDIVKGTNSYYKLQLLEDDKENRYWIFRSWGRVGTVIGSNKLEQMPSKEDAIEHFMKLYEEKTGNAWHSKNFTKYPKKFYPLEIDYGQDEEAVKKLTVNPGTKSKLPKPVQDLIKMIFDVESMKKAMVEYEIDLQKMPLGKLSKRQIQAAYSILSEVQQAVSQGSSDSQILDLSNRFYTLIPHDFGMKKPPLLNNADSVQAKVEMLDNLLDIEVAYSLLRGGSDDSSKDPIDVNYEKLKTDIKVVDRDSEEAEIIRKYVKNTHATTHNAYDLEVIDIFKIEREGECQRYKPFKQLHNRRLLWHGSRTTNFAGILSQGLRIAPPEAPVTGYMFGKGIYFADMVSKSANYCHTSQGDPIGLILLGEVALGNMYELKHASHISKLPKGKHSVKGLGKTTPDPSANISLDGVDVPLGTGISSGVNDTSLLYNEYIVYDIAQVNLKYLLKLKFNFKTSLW
T1 sequence (Q9H2K2 849-1166): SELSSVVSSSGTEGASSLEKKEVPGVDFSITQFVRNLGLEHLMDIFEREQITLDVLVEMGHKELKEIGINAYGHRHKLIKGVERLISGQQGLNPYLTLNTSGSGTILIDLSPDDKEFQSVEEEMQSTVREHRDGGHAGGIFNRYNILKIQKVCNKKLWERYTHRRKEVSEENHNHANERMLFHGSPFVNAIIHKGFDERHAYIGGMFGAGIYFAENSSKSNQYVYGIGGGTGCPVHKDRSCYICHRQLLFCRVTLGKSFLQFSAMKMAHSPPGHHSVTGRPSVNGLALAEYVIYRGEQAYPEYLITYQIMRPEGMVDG
Description for PARP-1 enzyme: Histones were coated on a 96-well plate provided from BPS Bioscience's kit and left at 4° C. for 16 hours. […] After 1 hour, each well was washed 4 times with PBST, and streptavidin-linked peroxidase (Strep-HRP, 1:50 dilution) was added thereto to measure the amount of ribosylation by PARP enzyme, and reacted at 25° C. for 30 minutes. The plate was washed 4 times with PBST, and then HRP chemiluminescent substrate was finally added thereto and reacted. The amount of histone ribosylation formed by each enzyme was quantified using a Synergy™ H4 Hybrid Multi-Mode Microplate Reader (BioTek Instruments, Inc., US (A)).
Description for tankyrase-2 enzyme: Histones were coated on a 96-well plate provided from BPS Bioscience's kit and left at 4 °C for 16 hours. […] After 1 hour, each well was washed 4 times with PBST, and streptavidin-linked peroxidase (Strep-HRP, 1:50 dilution) was added thereto to measure the amount of ribosylation by PARP enzyme, and reacted at 25° C. for 30 minutes. The plate was washed 4 times with PBST, and then HRP chemiluminescent substrate was finally added thereto and reacted. The amount of histone ribosylation formed by each enzyme was quantified using a Synergy™ H4 Hybrid Multi-Mode Microplate Reader (BioTek Instruments, Inc., US (A)).

Turning to `Cl.Cl.N#Cc1ccc(N2CCN(Cc3ccc4c5c(c(=O)[nH]c4c3)CCCN5)CC2)nc1` [Comparative Example 2, Dichloride Salt of 6-{4-[(5-oxo-1,2,3,4,5,6-hexahydrobenzo[h][1,6]naphthyridin-8-yl)methyl]piperazine-1-yl}nicotinonitrile], the “Water solubility” value in data set [1] was 392 µM. Besides, the results for the IC50 at PARP-1 enzyme and at tankyrase-2 enzyme were 3.03 nM and 1.12 nM, respectively. For the same compound, the “Purity (%)” value in data set [2] (Humidity of 75%, 3 days) was 97.76%; in data set [2] (Initial value) it was 97.89%; in data set [2] (Temperature of 40° C., humidity of 70%, 3 days), 97.83%; in data set [2] (Temperature of 50° C., 3 days), 97.79%; in data set [2] (UV 200 watt - dark), 97.89%; in data set [2] (UV 200 watt, 25° C. and 60% humidity), 86.89%. In addition, the “Purity (%)” value in data set [2] (Visible 1200k lux - dark) came out at 97.89%; in data set [2] (Visible 1200k lux, 25° C. and 60% humidity) it was 93.40%. The “Photostability (in words)” value in data set [2] (UV200 watt and Visible1200 k lux) is “remarkably poor photostability”. For the same compound, the “Stability in the temperature and humidity (in words)” value in data set [2] (temperature and humidity conditions of Table 5) is on record as “stable”.

Regarding `N#Cc1ccc(N2CCN(Cc3ccc4c5c(c(=O)[nH]c4c3)CCCN5)CC2)nc1` [Compound 1, 6-{4-[(5-oxo-1,2,3,4,5,6-hexahydrobenzo[h][1,6]naphthyridin-8-yl)methyl]piperazin-1-yl}nicotinonitrile], the “Water solubility” value in data set [1] (listed as Crystal (free form) of the compound of Formula 1 in Comparative Example 1-1) was found to be 1 µM. Also, the “Solubility (0.1 g/mL)” value in data set [3] (Aqueous HCl solution (pH 1.1), listed as Free form) was 350 mL; in data set [3] (DMF, listed as Free form), 8 mL; in data set [3] (EtOH, listed as Free form), at least 1000 mL; in data set [3] (MeOH, listed as Free form), 300 mL; in data set [3] (Water, listed as Free form), at least 1200 mL.

On to `N#Cc1ccc(N2CCN(Cc3ccc4c5c(c(=O)[nH]c4c3)CCCN5)CC2)nc1` [Example 3, Citrate Monohydrate of 6-{4-[(5-oxo-1,2,3,4,5,6-hexahydrobenzo[h][1,6]naphthyridin-8-yl)methyl]piperazine-1-yl}nicotinonitrile], for which the “Solubility (0.1 g/mL)” value was 50 mL in data set [3] (Aqueous HCl solution (pH 1.1), listed as Crystalline monohydrate of citrate in Example 3); 2.9 mL in data set [3] (DMF, listed as Crystalline monohydrate of citrate in Example 3); 350 mL in data set [3] (EtOH, listed as Crystalline monohydrate of citrate in Example 3); 9 mL in data set [3] (MeOH, listed as Crystalline monohydrate of citrate in Example 3); 400 mL in data set [3] (Water, listed as Crystalline monohydrate of citrate in Example 3). The entries for the “Long-term storage conditions (related substances) (area %)” value in data set [4] (3 months), in data set [4] (6 months) and in data set [4] (initial) were 0.29%, 0.32% and 0.38%, respectively. Further, the “Accelerated storage conditions (related substances) (area %)” value worked out at 0.34% in data set [4] (3 months), 0.32% in data set [4] (6 months) and 0.38% in data set [4] (initial).

Take `N#Cc1ccc(N2CCN(Cc3ccc4c5c(c(=O)[nH]c4c3)CCCN5)CC2)nc1` [Example 4, Citrate Dihydrate of 6-{4-[(5-oxo-1,2,3,4,5,6-hexahydrobenzo[h][1,6]naphthyridin-8-yl)methyl]piperazine-1-yl}nicotinonitrile]: the “Solubility (0.1 g/mL)” value in data set [3] (Aqueous HCl solution (pH 1.1), listed as Crystalline dihydrate of citrate in Example 4) is on record as 55 mL; in data set [3] (DMF, listed as Crystalline dihydrate of citrate in Example 4), 2.5 mL; in data set [3] (EtOH, listed as Crystalline dihydrate of citrate in Example 4), 450 mL; in data set [3] (MeOH, listed as Crystalline dihydrate of citrate in Example 4), 9 mL; in data set [3] (Water, listed as Crystalline dihydrate of citrate in Example 4), at least 400 mL.

What is called IC50 is the point on the concentration scale where inhibition reaches its midpoint.
